Tests used:
[1] = Gelation of peptides in non-aqueous polar aprotic solvents; format: physicochemical; conditions: formulated in non-aqueous polar aprotic solvents; no gelation even after 12 months at 37° C.
Method: No gelation was found even after 12 months at 37° C. […] Thus, these solvents have an anti-gellant effect.

[2] = aggregation, gelation and fibrillation; cited from earlier work

Molecule	gelation [1]	physical stability in aqueous solution [2]
CC(C)C[C@H](NC(=O)[C@@H](COC(C)(C)C)NC(=O)[C@H](Cc1ccc(O)cc1)NC(=O)[C@H](CO)NC(=O)[C@H](Cc1c[nH]c2ccccc12)NC(=O)[C@H](Cc1cnc[nH]1)NC(=O)[C@@H]1CCC(=O)N1)C(=O)N[C@@H](CCCNC(=N)N)C(=O)N1CCC[C@H]1C(=O)NNC(N)=O [goserelin]	do not gel	
CCNC(=O)[C@@H]1CCCN1C(=O)[C@H](CCCNC(=N)N)NC(=O)[C@H](CC(C)C)NC(=O)[C@@H](CC(C)C)NC(=O)[C@H](Cc1ccc(O)cc1)NC(=O)[C@H](CO)NC(=O)[C@H](Cc1c[nH]c2ccccc12)NC(=O)[C@H](Cc1c[nH]cn1)NC(=O)[C@@H]1CCC(=O)N1 [leuprolide]	do not gel	
calcitonin	do not gel	physically unstable

Source: patent US6235712A, “Non-aqueous polar aprotic peptide formulations” (ALZA Corporation, priority 2000, dated 2001)
